{"source": "patent US7247615B2", "about": "“Peptide agonists of prostate-specific antigen and uses therefor” (priority 2001, dated 2007)", "key": {"HLA-A2": {"target": "T1, HLA-A2 (Homo sapiens, UniProt P04439, D140Y/D185E/D98H/E176V/E277Q/G131W/G231S/I119V/I121R/I166T/I218V/L300P/L318F/N151K/N90K/P208A/P217A/Q86G/Q94H/R138H/R169H/T345S)", "T1 construct": "endogenous in cells; host or cells: T2A2 / 174CEM-T2 (T2) transport deletion mutant cell line", "experiment": "Peptide binding to HLA-A2 on T2A2 cells (flow cytometry)", "details": "peptide 0 to 50 μg/ml, FIG. 1A", "description": "Single-color flow cytometric analysis. The method for single-color flow cytometric analysis was described previously (F. Guadagni et al., 1990, Cancer Res. 50:6248–6255). Briefly, cells were washed three times with cold Ca^2+ and Mg^2+-free DPBS and then stained for 1 h with mAb against HLA-A2 (A2,69, One Lambda, Inc., Canoga Park, Calif.), using 10 μg of the 1× working dilution per 10^6 cells. Mineral oil plasmacytoma-104E (Cappel/Organon Teknika Corp., West Chester, Pa.) was used as an isotype control. The cells were washed three times and incubated with a 1:100 dilution of fluorescein isothiocyanate (FITC)-labeled goat anti-mouse immunoglobulin (IgG) (Kirkegaard and Perry Laboratories, Gaithersburg, Md.). The cells were immediately analyzed using a Becton Dickinson FACScan equipped with a blue laser with an excitation of […] at 488 nm. Data were gathered from 10,000 live cells, stored and used to generate results.\nPeptide Binding to HLA-A2. […] Briefly, 1×10^6 cells in serum-free Iscove's modified Dulbecco's complete medium were incubated with peptides at a concentration of 50 μg/ml in 24 well culture plates at 37° C. in 5% CO2. Flow cytometry for peptide binding was performed using T2 cells and single-color analysis. After cells were washed three times in DPBS, as described above, they were incubated for 1 h with HLA-A2 specific MAb (One Lambda, Inc.) using 10 μg of a 1× working dilution per 10^6 cells. UPC-10 (Cappel/Organon Teknika) was used as isotype control. The cells were washed three times and incubated with 1:100 dilution of FITC-labeled anti-mouse IgG (Becton Dickinson). Analysis was conducted with the FACScan, as described above. Cells were maintained on ice during all cell preparation and staining.\nThe four analogs were then tested for binding to the HLA-A2 positive T2A2 cells as described in the Examples section. The NCA peptide was previously shown to not bind to HLA-A2, and was used as a negative […] control. Peptides were added to T2A2 cells at concentrations of 0 to 50 μg/ml."}, "CD8+ cells (T-PSA-3)": {"test_system": "CD8+ cells (T-PSA-3)", "experiment": "Apoptosis (TUNEL) assay of peptide-stimulated T cells", "format": "cell-based, human", "details": "T cells stimulated with peptide-pulsed autologous B cells, IVS-5, TUNEL", "from_the_text": "FIGS. 5A–5C. DNA fragmentation in peptide stimulated T cells using the TUNEL assay. Apoptosis of CD8^+ cells activated by PSA peptide pulsed autologous B cells. FIG. 5A: T-PSA-3 cells stimulated with B cells with no peptide; FIG. 5B: T-PSA-3 cells stimulated with B cells pulsed with PSA-3 peptide; FIG. 5C: T-PSA-3 cells stimulated with B cells pulsed with PSA-3A peptide. Numbers in each histogram indicate percent of apoptotic cells (cells above line) as described in the Examples section.\nApoptosis Assay. T cells were incubated for 48 h in the presence of peptide-pulsed autologous B cells as described in the IVS procedure, above, and replated to 96-well plates for 24 h. Apoptosis was analyzed using the terminal deoxynucleotidyl transferase-mediated nick-end labeling (TUNEL) assay (Y. Gavrieli et al., 1992, J. Cell Biol. 119:493–501)."}, "T-PSA-3 cells": {"test_system": "T-PSA-3 cells", "experiment": "Cytometric Bead Array cytokine production by peptide-stimulated T cells", "format": "cell-based, human", "details": "T-PSA-3 + peptide-pulsed autologous B cells, 24 h supernatant", "description": "(§1) Detection of Cytokines. Supernatant of T cells exposed for 24 h to peptide-pulsed infected DC, rV-PSA infected DC, or rV-PSA-3A infected DC, in IL-2-free medium at various responder: stimulator ratios, were screened for secretion of IFN-γ using an ELISA kit (R & D Systems, Minneapolis, Minn.). The results were calculated as pg/ml. A Cytometric Bead Array (CBA) system (BD PharMingen, San Diego, Calif.) was also used to determine the secretion of multiple cytokines by specific T cell lines. The CBA system uses the fluorescence detection by flow cytometry to measure soluble analytes in a particle-based immunoassay. The BD human Th1/Th2 cytokine CBA Kit was employed to measure IL-2, IL-4, IL-5, IL-10, TNF-α, and IFN-γ protein levels in a single sample. The cytokine capture beads were mixed with PE-conjugated detection antibodies and then incubated with recombinant cytokine standards or test samples to form sandwich complexes. The samples results were generated in graphical and tabular format using BD CBA analysis software. The results were calculated as pg/ml.\nThe cytokine profile of T cells stimulated with APCs pulsed with either the PSA-3 or the PSA-3A peptide was then analyzed. The T cell line derived using the PSA-3 peptide was used in these studies, and the APCs used were autologous B cells. A Cytometric Bead Array (CBA) assay was used for analysis (see Examples section) using supernatant fluids obtained 24 h after stimulation. FIGS. 6A–6C illustrate […] of the 10 internal standards used for the calibration of the results obtained in this assay. FIGS. 6D–6F show the levels of each of six cytokines produced by T cells stimulated with APCs pulsed with no peptide, PSA-3A peptide, and PSA-3 peptide, respectively. […] The results obtained for IL-5 will be discussed below (Conclusions section)."}, "T-PSA-3A cells": {"test_system": "T-PSA-3A cells", "experiment": "IFN-γ production by T cell line stimulated with peptide-pulsed DCs (ELISA)", "format": "cell-based, human", "details": "peptide 25 μg/ml", "description": "as §1\nTable 2: Production of IFN-γ by a T cell line stimulated with PSA-3 or agonist PSA-3A peptides. The PSA-specific T cell line T-PSA-3A was used as effector cells at IVS-3. T-PSA-3A cells were stimulated with irradiated HLA-A2 positive allogeneic DCs either pulsed with PSA-3 or PSA-3A peptide at a concentration of 25 μg/ml and an effector-to-APC ratio of 10:1. After 24-h culture supernatants were collected and screened for the secretion of IFN-γ. APC=antigen […]."}, "DCs": {"test_system": "DCs", "experiment": "IL-12 production by peptide-pulsed DCs in the presence of T cells", "format": "cell-based, human", "description": "It has been previously shown that the activation of T cells by peptidepulsed DCs is related to the level of IL-12 production by the DCs. Studies were therefore conducted to determine the levels of IL-12 production by DCs pulsed with PSA-3 and PSA-3A peptides in the presence of T cells. […] When DCs pulsed with the PSA3A peptide were incubated with both T cell lines, the DCs incubated with the T-PSA-3A line again produced higher levels of IL-12 than those peptide-pulsed DCs incubated with the T cell line T-PSA-3 (Table 3)."}, "[1]": {"test_system": "HLA-A2/K^b transgenic mice", "experiment": "Immunization of HLA-A2.1/Kb transgenic mice with peptide-pulsed DCs, IFN-γ production by T cells", "format": "in vivo, mouse", "details": "24 h", "from_the_text": "Transgenic Mice. HLA-A2.1/K^b transgenic mice were kindly provided by Dr. L. Sherman (Scripps Laboratories, San Diego, Calif.). Transgenic mice express the product of the HLA-A2.1/Kb chimeric gene in which the alpha-3 domain of the heavy chain is replaced by mouse H-2/K^b domain, but the HLA-A2.1 alpha-1 and alpha-2 domains are unaltered (A. Vitiello et al., 1991, J. Exp. Med. 173:1007–1015; V. H. Engelhard et al., 1991, J. Immunol. 46:1226–1232).\nIn Vivo Immunization and Murine T cell Cultures. Three groups of HLA-A2.1/K^b transgenic mice (three mice per group) were immunized s.c. (subcutaneously) in the base of the tail with PSA-3 peptide-pulsed HLA-A2.1/K^b DC, PSA-3A peptide-pulsed DCs from HLA-A2.1/K^b transgenic mice, or DCs only. Peptides were used at a concentration of 50 μg/ml and DCs were used at 1×10^6 cell/mouse/injection. A total of three injections were given to each animal, 2 weeks apart. Mice injected with DCs only were used as controls. Mice were sacrificed 7 days after the last injection, and spleen cells were restimulated in vitro with 25 μg/ml of PSA-3 or PSA3A peptide with irradiated syngeneic spleen cell for 6 days. The cytokine production of these bulk cultures was tested. Peptide-pulsed Jurkat A2 (JA2 K^b) cells were used as stimulator cells. Jurkat 0201 K^b cells are stable transfectants of the human T cell leukemia line, Jurkat, which express the product of HLA-A0201K^b climeric gene (L. A. Sherman et al., 1992, Science 258:815–818).\nThe HLA-A2/K^b transgenic mouse has been previously reported to aid in the determination of the immunogenicity of HLA-A2 peptides for humans. This in vivo system was thus employed to further analyze and compare the immunogenicity of the PSA-3A peptide with that of the native PSA-3 peptide. DCs from the HLA-A2/K^b transgenic mice were pulsed with either the PSA-3 or the PSA-3A peptide and used to vaccinate HLA-A2b mice. DCs alone (no peptide) were also used as a control vaccine. After three vaccinations at 2-week intervals, T cells were isolated from splenocytes obtained 2 weeks after the last vaccination. The T cells were then incubated with Jurkat A2/K^b cells pulsed with the PSA-3 peptide, the PSA-3A peptide, or no peptide, and production of INF-γ was measured from supernatants after 24 h."}}, "note": "Values joined by “and” are separate entries in the source; they are usually repeats but may differ in a detail not shown here. Identical values can stand only once."}
{"sequence": "VISNDVCAQL (SEQ ID NO:2) [1–163]", "values": [{"measurement": "Binding to HLA-A2 (relative fluorescence, MFI)", "setting": "HLA-A2", "result": "no binding"}]}
{"sequence": "VISNDVCAQV (SEQ ID NO:1) [PSA-3, reference compound]", "values": [{"measurement": "Apoptotic CD8+ cells", "setting": "CD8+ cells (T-PSA-3)", "result": "4.9% and 4.5%"}, {"measurement": "Production of IL-4", "setting": "T-PSA-3 cells", "result": "Low or undetectable levels"}, {"measurement": "Production of IL-10", "setting": "T-PSA-3 cells", "result": "Low or undetectable levels"}, {"measurement": "Production of TNF-α", "setting": "T-PSA-3 cells", "result": "No TNF-α could be detected"}, {"measurement": "PRODUCTION OF IFN-γ", "setting": "T-PSA-3A cells; APC DCs, T-PSA-3A T cells present, effector-to-APC 10:1, 24 h, IVS-3", "result": 280, "unit": "pg/mL"}, {"measurement": "PRODUCTION OF IFN-γ", "setting": "T-PSA-3A cells; APC DCs, no T cell, 24 h", "result": "<15", "unit": "pg/mL"}, {"measurement": "PRODUCTION OF IFN-γ", "setting": "T-PSA-3A cells; no APC, T-PSA-3A T cells present, 24 h", "result": "<15", "unit": "pg/mL"}, {"measurement": "IL-12 PRODUCTION", "setting": "DCs; APC DC, T cell line T-PSA-3, peptide 25 μg/ml, 10:1, 24 h, IVS-4", "result": 5.0, "unit": "pg/ml/5 × 10^5 DC"}, {"measurement": "IL-12 PRODUCTION", "setting": "DCs; APC DC, T cell line T-PSA-3A, peptide 25 μg/ml, 10:1, 24 h, IVS-4", "result": 10.5, "unit": "pg/ml/5 × 10^5 DC"}, {"measurement": "IL-12 PRODUCTION", "setting": "DCs; no APC, T cell line T-PSA-3, peptide 25 μg/ml, 24 h", "result": "<0.6", "unit": "pg/ml/5 × 10^5 DC"}, {"measurement": "IL-12 PRODUCTION", "setting": "DCs; no APC, T cell line T-PSA-3A, peptide 25 μg/ml, 24 h", "result": "<0.6", "unit": "pg/ml/5 × 10^5 DC"}, {"measurement": "Production of IFN-γ", "setting": "[1]; label = peptide pulsed on immunizing DCs, Jurkat A2/K^b cells pulsed with PSA-3A (25 μg/ml)", "result": "1,969.0 pg/ml/10^6 cells"}, {"measurement": "Production of IFN-γ", "setting": "[1]; label = peptide pulsed on immunizing DCs, Jurkat A2/K^b cells with no peptide", "result": "<37.0", "unit": "pg/ml/10^6 cells"}, {"measurement": "Production of IFN-γ", "setting": "[1]; label = peptide pulsed on immunizing DCs, T cells restimulated with Jurkat A2/K^b cells pulsed with PSA-3 (25 μg/ml)", "result": "1,908.0 pg/ml/10^6 cells"}, {"measurement": "Production of IFN-γ", "setting": "[1]; mice immunized with DCs (no peptide), label = peptide pulsed on Jurkat A2/K^b cells", "result": "<37.0", "unit": "pg/ml/10^6 cells"}]}
{"sequence": "YISNDVCAQV (SEQ ID NO:4) [Y154]", "values": [{"measurement": "Binding to HLA-A2 (relative fluorescence, MFI)", "setting": "HLA-A2", "result": "higher levels than PSA-3"}]}
